Results as given in US10138251B2, “Spiro[3H-indole-3,2′-pyrrolidin]-2(1H)-one compounds and derivatives as MDM2-P53 inhibitors” (Boehringer Ingelheim International GmbH, priority 2014, dated 2018).
pIC50: −log10 of the molar value.

Biological target: T1, MDM2 (Homo sapiens, UniProt Q00987)
T1 construct: 20 nM GST-MDM2 protein (aa 23-117)
Test: Mdm2-p53 Inhibition AlphaScreen
Assay type: binding
Conditions: 20 nM GST-MDM2 protein (aa 23-117), 20 nM biotinylated p53 wt peptide
Method: Mdm2-p53 Inhibition AlphaScreen
15 μL of compound in 20% DMSO (serial pre-dilutions of compound are done in 100% DMSO) is pipetted to the wells of a white OptiPlate-96 (PerkinElmer). A mix consisting of 20 nM GST-MDM2 protein (aa 23-117) and 20 nM biotinylated p53 wt peptide (encompassing aa 16-27 of wt human p53, amino acid sequence QETFSDLWKLLP-Ttds-Lys-Biotin, molecular weight 2132.56 g/mol) is prepared in assay buffer (50 mM Tris/HCl pH 7.2; 120 mM NaCl; 0.1% bovine serum albumin (BSA); 5 mM dithiothreitol (DTT); 1 mM ethylenediaminetetraacetic acid (EDTA); 0.01% Tween 20). 30 μL of the mix is added to the compound dilutions and incubated for 15 min at rt while gently shaking the plate at 300 rounds per minute (rpm). Subsequently, 15 μL of premixed AlphaLISA Glutathione Acceptor Beads and AlphaScreen Streptavidin Donor Beads from PerkinElmer (in assay buffer at a concentration of 10 μg/mL each) are added and the samples are incubated for 30 min at rt in the dark (shaking 300 rpm). Afterwards, the signal is measured in a PerkinElmer Envision HTS Multilabel Reader using the AlphaScreen protocol from PerkinElmer.
Each plate contains negative controls where biotinylated p53-peptide and GST-MDM2 are left out and replaced by assay buffer. Negative control values are entered as low basis value when using the software GraphPad Prism for calculations. Furthermore, a positive control (5% DMSO instead of test compound; with protein/peptide mix) is pipetted. Determination of IC50 values are carried out using GraphPad Prism 3.03 software (or updates thereof).

T1 sequence (Q00987 23-117): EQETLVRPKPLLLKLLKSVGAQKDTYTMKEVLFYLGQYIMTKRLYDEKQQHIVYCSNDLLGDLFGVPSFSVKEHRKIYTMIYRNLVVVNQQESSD

| pIC50 | SMILES |
| --- | --- |
| 6.99 | O=C(CCO)N1CC[C@H]2C1[C@H](c1cccc(Cl)c1F)[C@]1(C(=O)Nc3cc(Cl)ccc31)N2CC1CC1 (some centres unmarked) [Compound I-83] |
| 6.74 | CCOc1cccc(CN2[C@H]3CCN(C(C)=O)C3[C@H](c3cccc(Cl)c3F)[C@]23C(=O)Nc2cc(Cl)ccc23)n1 (some centres unmarked) [Compound I-91] |
| 6.43 | COc1cc([C@@H]2C[C@@H]3[C@H](N2)[C@@H](c2cccc(Cl)c2F)[C@@]2(C(=O)Nc4cc(Cl)ccc42)N3CC2CC2)ccc1C(=O)O [Compound I-32] |
| 7.04 | O=C(O)c1ccc(CN2CC[C@H]3[C@@H]2[C@H](c2cccc(Cl)c2F)[C@]2(C(=O)Nc4cc(Cl)ccc42)N3CC2CC2)cc1 [Compound I-68] |
| 6.89 | O=C(O)C1CC1CN1CC[C@H]2[C@@H]1[C@H](c1cccc(Cl)c1F)[C@]1(C(=O)Nc3cc(Cl)ccc31)N2CC1CC1 (some centres unmarked) [Compound I-63] |
| 7.31 | O=C(O)c1ccc([C@@H]2C[C@H]3[C@@H](N2)[C@H](c2cccc(Cl)c2)[C@]2(C(=O)Nc4cc(Cl)ccc42)N3CC2CC2)cc1 [Compound I-25] |
| 6.60 | O=C(O)c1cccc([C@@H]2C[C@H]3[C@@H](N2)[C@H](c2cccc(Cl)c2)[C@]2(C(=O)Nc4cc(Cl)ccc42)N3CC2CC2)c1 [Compound I-28] |
| 7.49 | O=C(O)c1cccc([C@H]2C[C@H]3[C@@H](N2)[C@H](c2cccc(Cl)c2)[C@]2(C(=O)Nc4cc(Cl)ccc42)N3CC2CC2)c1 [Compound I-27] |
| 7.54 | CCOc1cccc(CN2[C@H]3CCN(Cc4cn[nH]c4C(=O)O)[C@H]3[C@H](c3cccc(Cl)c3F)[C@]23C(=O)Nc2cc(Cl)ccc23)c1 [Compound I-73] |
| 6.35 | CC(=O)Nc1ccc(C(=O)N2CC[C@H]3C2[C@H](c2cccc(Cl)c2F)[C@]2(C(=O)Nc4cc(Cl)ccc42)N3CC2CC2)c(C)c1 (some centres unmarked) [Compound I-81] |
| 7.64 | O=C(O)c1ccc([C@H]2C[C@H]3[C@@H](N2)[C@H](c2cccc(Cl)c2)[C@]2(C(=O)Nc4cc(Cl)ccc42)N3CC2CC2)cc1 [Compound I-24] |
| 7.47 | CC(=O)N1CC[C@H]2C1[C@H](c1ccnc(Cl)c1F)[C@]1(C(=O)Nc3cc(Cl)ccc31)N2CC1CC1 (some centres unmarked) [Compound I-89] |
| 6.14 | CCOc1cccc(CN2[C@@H]3CCN(CC(=O)O)[C@@H]3[C@@H](c3cccc(Cl)c3F)[C@@]23C(=O)Nc2cc(Cl)ccc23)c1 [Compound I-71] |
| 8.40 | CCOc1cccc(CN2[C@H]3C[C@H](c4ccc(C(=O)O)cc4)N[C@H]3[C@H](c3cccc(Cl)c3F)[C@]23C(=O)Nc2cc(Cl)ccc23)c1 [Compound I-36] |
| 6.97 | O=C(O)c1ccc(C(=O)N2CC[C@H]3C2[C@H](c2cccc(Cl)c2F)[C@]2(C(=O)Nc4cc(Cl)ccc42)N3CC2CC2)cc1 (some centres unmarked) [Compound I-92] |
| 7.07 | O=C(O)CN1CC[C@H]2[C@@H]1[C@H](c1cccc(Cl)c1)[C@]1(C(=O)Nc3cc(Cl)ccc31)N2CC1CC1 [Compound I-60] |
| 6.76 | COc1cc(C(=O)O)ccc1[C@@H]1C[C@H]2[C@@H](N1)[C@H](c1cccc(Cl)c1)[C@]1(C(=O)Nc3cc(Cl)ccc31)N2CC1CC1 [Compound I-26] |
| 8.22 | CCOc1cccc(CN2[C@H]3CCN(C(C)=O)C3[C@H](c3ccnc(Cl)c3F)[C@]23C(=O)Nc2cc(Cl)ccc23)c1 (some centres unmarked) [Compound I-90] |
| 5.89 | O=C(O)c1[nH]ncc1CN1CC[C@H]2[C@@H]1[C@H](c1cccc(Cl)c1F)[C@]1(C(=O)Nc3cc(Cl)ccc31)N2CC1CC1 [Compound I-72] |
| 6.97 | CN(C)C(=O)CCC(=O)N1CC[C@H]2C1[C@H](c1cccc(Cl)c1F)[C@]1(C(=O)Nc3cc(Cl)ccc31)N2CC1CC1 (some centres unmarked) [Compound I-84] |
| 8.30 | CCOc1cccc(CN2[C@H]3C[C@@H](c4ccc(C(=O)O)cc4)N[C@H]3[C@H](c3cccc(Cl)c3F)[C@]23C(=O)Nc2cc(Cl)ccc23)c1 [Compound I-37] |

| pIC50 | SMILES |
| --- | --- |
| 8.52 | CCOc1cccc(CN2[C@H]3CCN(CC(=O)O)[C@H]3[C@H](c3cccc(Cl)c3F)[C@]23C(=O)Nc2cc(Cl)ccc23)c1 [Compound I-69] |
| 6.92 | COCC(=O)N1CC[C@H]2C1[C@H](c1cccc(Cl)c1F)[C@]1(C(=O)Nc3cc(Cl)ccc31)N2CC1CC1 (some centres unmarked) [Compound I-77] |
| 6.55 | O=C(O)C[C@@H]1C[C@H]2[C@@H](N1)[C@H](c1cccc(Cl)c1)[C@]1(C(=O)Nc3cc(Cl)ccc31)N2CC1CC1 [Compound I-47] |
| 6.41 | CC(=O)Nc1ccc(C(=O)N2CC[C@H]3C2[C@H](c2cccc(Cl)c2F)[C@]2(C(=O)Nc4cc(Cl)ccc42)N3CC2CC2)cc1 (some centres unmarked) [Compound I-82] |
| 7.62 | CCOc1cccc(CN2[C@H]3CCN(CC4CCC(C(=O)O)CC4)[C@H]3[C@H](c3cccc(Cl)c3F)[C@]23C(=O)Nc2cc(Cl)ccc23)c1 (some centres unmarked) [Compound I-62] |
| 6.42 | CN(C)CC(=O)N1CC[C@H]2C1[C@H](c1cccc(Cl)c1F)[C@]1(C(=O)Nc3cc(Cl)ccc31)N2CC1CC1 (some centres unmarked) [Compound I-78] |
| 6.22 | CN(C)c1cccc(C(=O)N2CC[C@H]3C2[C@H](c2cccc(Cl)c2F)[C@]2(C(=O)Nc4cc(Cl)ccc42)N3CC2CC2)c1 (some centres unmarked) [Compound I-87] |
| 7.55 | CCOc1cccc(CN2[C@H]3CCN(C(C)=O)C3[C@H](c3cccc(Cl)c3F)[C@]23C(=O)Nc2cc(Cl)ccc23)c1 (some centres unmarked) [Compound I-88] |
| 6.68 | CCOc1cccc(CN2[C@@H]3CCN(CC4CC4C(=O)O)[C@@H]3[C@@H](c3cccc(Cl)c3F)[C@@]23C(=O)Nc2cc(Cl)ccc23)c1 (some centres unmarked) [Compound I-66] |
| 8.52 | CCOc1cccc(CN2[C@H]3CCN(CC4CC4C(=O)O)[C@H]3[C@H](c3cccc(Cl)c3F)[C@]23C(=O)Nc2cc(Cl)ccc23)c1 (some centres unmarked) [Compound I-65] |
| 8.22 | CCOc1cccc(CN2[C@H]3CCN(CC4CC4C(=O)O)[C@H]3[C@H](c3cccc(Cl)c3F)[C@]23C(=O)Nc2cc(Cl)ccc23)c1 (some centres unmarked) [Compound I-64] |
| 6.42 | O=C(O)c1cccc(C(=O)N2CC[C@H]3C2[C@H](c2cccc(Cl)c2F)[C@]2(C(=O)Nc4cc(Cl)ccc42)N3CC2CC2)c1 (some centres unmarked) [Compound I-93] |
| 6.41 | O=C(Cc1cccnc1)N1CC[C@H]2C1[C@H](c1cccc(Cl)c1F)[C@]1(C(=O)Nc3cc(Cl)ccc31)N2CC1CC1 (some centres unmarked) [Compound I-79] |
| 6.06 | O=C1Nc2nc(Cl)ccc2[C@@]12[C@@H](c1cccc(Cl)c1F)[C@@H]1NCC[C@@H]1N2CC1CC1 [Compound I-23] |
| 6.67 | CC(=O)N1CC[C@H]2C1[C@H](c1cccc(Cl)c1F)[C@]1(C(=O)Nc3cc(Cl)ccc31)N2CC1CC1 (some centres unmarked) [Compound I-76] |
| 6.55 | O=C(O)C[C@H]1C[C@H]2[C@@H](N1)[C@H](c1cccc(Cl)c1)[C@]1(C(=O)Nc3cc(Cl)ccc31)N2CC1CC1 [Compound I-46] |
| 6.22 | O=C(c1ncccn1)N1CC[C@H]2C1[C@H](c1cccc(Cl)c1F)[C@]1(C(=O)Nc3cc(Cl)ccc31)N2CC1CC1 (some centres unmarked) [Compound I-80] |
| 8.70 | CCOc1cccc(CN2[C@H]3C[C@H](c4ccc(C(=O)O)cc4)N[C@H]3[C@H](c3cccc(Cl)c3F)[C@]23C(=O)Nc2cc(Cl)ccc23)c1 [Compound I-38] |
| 6.88 | O=C(O)c1ccc([C@@H]2CC[C@H]3[C@@H](N2)[C@H](c2cccc(Cl)c2F)[C@]2(C(=O)Nc4cc(Cl)ccc42)N3CC2CC2)cc1 [Compound I-40] |
| 6.21 | CCOC(=O)c1ccc([C@H]2C[C@H]3[C@@H](N2)[C@H](c2cccc(Cl)c2F)[C@]2(C(=O)Nc4cc(Cl)c(F)cc42)N3CC2CC2)cc1 [Compound I-13] |
